# From US20240218342A1, “SITE-SPECIFIC GLYCAN REMODELING OF LYSOSOMAL ENZYMES AND APPLICATIONS THEREOF” (priority 2021, published 2024)
# pKd: −log10 of the molar value. “Also recorded” adds a separate entry of the source.
# Experiments:
# CI-MPR = CI-MPR (Homo sapiens, UniProt P11717); settings: previous studies; read-out: apparent KD; cited from earlier work
# [1] = system: GAA-deficient multinucleated myotubes (KO); assay: Cell-associated GAA activity in treated GAA KO myotubes; format: cell-based, mouse; settings: 5 μM for 24 hours, compared to untreated cells
# Description: (§1) Muscle cell culture, treatment, processing, and analysis. The biological effect of the Endo-A (69) and Endo-F3 (70) remodeled rhGAA was investigated in an in vitro model of Pompe disease.^[11, 12] The myoblasts are grown on Matrigel (Corning; 354234)-coated 6-well plates at 33° C. in an atmosphere of 5% CO2 in proliferation medium [20% fetal bovine serum, 10% horse serum, 1% chick embryo extract, recombinant IFN-γ (100 U/mL; Life Technologies), 1× penicillin/streptomycin/L-glutamine in high-glucose (4.5 g/L) DMEM]. When the cells reach 70-80% confluency (3-4 days), the medium is switched to differentiation medium [DMEM containing 2% horse serum, 0.5% chick embryo extract, recombinant human insulin (10 μg/mL, Life Technologies, 12585-014), 1× penicillin/streptomycin/L-glutamine], and the cells are moved to 37° C. in an atmosphere of 5% CO2. Myotubes begin to form within 3-4 days; they can survive for ˜ 8-10 days in culture until they start twitching and detach from the surface. […]
# Measurement of cell-associated GAA activity. The GAA activity in the cells was measured by using 4-methylumbelliferyl-α-D-glucopyranoside (4-MU-α-glucopyranoside; Sigma-Aldrich #M9766) as the fluorogenic GAA substrate as described.^[13] […] Fluorescence was measured on a multi-label plate reader (TECAN, SPARK 10M) at 360 nm excitation/465 nm emission.
# [2] = system: GAA-deficient multinucleated myotubes (KO); assay: LAMP1 immunofluorescence (lysosomal swelling) in GAA KO myotubes; format: cell-based, mouse; settings: 5 μM for 24 hours, confocal images
# Description: Muscle cell culture, treatment, processing, and analysis. The biological effect of the Endo-A (69) and Endo-F3 (70) remodeled rhGAA was investigated in an in vitro model of Pompe disease.^[11, 12] The myoblasts are grown on Matrigel (Corning; 354234)-coated 6-well plates at 33° C. in an atmosphere of 5% CO2 in proliferation medium [20% fetal bovine serum, 10% horse serum, 1% chick embryo extract, recombinant IFN-γ (100 U/mL; Life Technologies), 1× penicillin/streptomycin/L-glutamine in high-glucose (4.5 g/L) DMEM]. When the cells reach 70-80% confluency (3-4 days), the medium is switched to differentiation medium [DMEM containing 2% horse serum, 0.5% chick embryo extract, recombinant human insulin (10 μg/mL, Life Technologies, 12585-014), 1× penicillin/streptomycin/L-glutamine], and the cells are moved to 37° C. in an atmosphere of 5% CO2. Myotubes begin to form within 3-4 days; they can survive for ˜ 8-10 days in culture until they start twitching and detach from the surface.
# The commercial rhGAA, Endo-A- or Endo-F3 remodeled rhGAA were added to the myotubes (on day 8 in differentiation medium) at a concentration of 5 μM for 24 hours; n=5 independent experiments for each condition. Wild type (WT) immortalized myotubes and untreated KO myotubes were used for comparison. The cells were homogenized on ice in deionized H2O, sonicated, and centrifuged at 18,000×g at 4° ° C. for 15 min. […]
# [3] = system: GAA-deficient multinucleated myotubes (KO); assay: Western blotting of treated GAA KO myotube lysates; format: cell-based, mouse; settings: 5 μM for 24 hours
# Description: as §1
# Western blotting. […] Protein concentrations of the supernatants were measured using the Bio-Rad Protein Assay (Bio-Rad Laboratories, Inc.), and equal amounts of protein were run on SDS-PAGE gels (Invitrogen, Carlsbad, CA). […]
# CI-MPR, sequence (P11717 41-2491, species assumed): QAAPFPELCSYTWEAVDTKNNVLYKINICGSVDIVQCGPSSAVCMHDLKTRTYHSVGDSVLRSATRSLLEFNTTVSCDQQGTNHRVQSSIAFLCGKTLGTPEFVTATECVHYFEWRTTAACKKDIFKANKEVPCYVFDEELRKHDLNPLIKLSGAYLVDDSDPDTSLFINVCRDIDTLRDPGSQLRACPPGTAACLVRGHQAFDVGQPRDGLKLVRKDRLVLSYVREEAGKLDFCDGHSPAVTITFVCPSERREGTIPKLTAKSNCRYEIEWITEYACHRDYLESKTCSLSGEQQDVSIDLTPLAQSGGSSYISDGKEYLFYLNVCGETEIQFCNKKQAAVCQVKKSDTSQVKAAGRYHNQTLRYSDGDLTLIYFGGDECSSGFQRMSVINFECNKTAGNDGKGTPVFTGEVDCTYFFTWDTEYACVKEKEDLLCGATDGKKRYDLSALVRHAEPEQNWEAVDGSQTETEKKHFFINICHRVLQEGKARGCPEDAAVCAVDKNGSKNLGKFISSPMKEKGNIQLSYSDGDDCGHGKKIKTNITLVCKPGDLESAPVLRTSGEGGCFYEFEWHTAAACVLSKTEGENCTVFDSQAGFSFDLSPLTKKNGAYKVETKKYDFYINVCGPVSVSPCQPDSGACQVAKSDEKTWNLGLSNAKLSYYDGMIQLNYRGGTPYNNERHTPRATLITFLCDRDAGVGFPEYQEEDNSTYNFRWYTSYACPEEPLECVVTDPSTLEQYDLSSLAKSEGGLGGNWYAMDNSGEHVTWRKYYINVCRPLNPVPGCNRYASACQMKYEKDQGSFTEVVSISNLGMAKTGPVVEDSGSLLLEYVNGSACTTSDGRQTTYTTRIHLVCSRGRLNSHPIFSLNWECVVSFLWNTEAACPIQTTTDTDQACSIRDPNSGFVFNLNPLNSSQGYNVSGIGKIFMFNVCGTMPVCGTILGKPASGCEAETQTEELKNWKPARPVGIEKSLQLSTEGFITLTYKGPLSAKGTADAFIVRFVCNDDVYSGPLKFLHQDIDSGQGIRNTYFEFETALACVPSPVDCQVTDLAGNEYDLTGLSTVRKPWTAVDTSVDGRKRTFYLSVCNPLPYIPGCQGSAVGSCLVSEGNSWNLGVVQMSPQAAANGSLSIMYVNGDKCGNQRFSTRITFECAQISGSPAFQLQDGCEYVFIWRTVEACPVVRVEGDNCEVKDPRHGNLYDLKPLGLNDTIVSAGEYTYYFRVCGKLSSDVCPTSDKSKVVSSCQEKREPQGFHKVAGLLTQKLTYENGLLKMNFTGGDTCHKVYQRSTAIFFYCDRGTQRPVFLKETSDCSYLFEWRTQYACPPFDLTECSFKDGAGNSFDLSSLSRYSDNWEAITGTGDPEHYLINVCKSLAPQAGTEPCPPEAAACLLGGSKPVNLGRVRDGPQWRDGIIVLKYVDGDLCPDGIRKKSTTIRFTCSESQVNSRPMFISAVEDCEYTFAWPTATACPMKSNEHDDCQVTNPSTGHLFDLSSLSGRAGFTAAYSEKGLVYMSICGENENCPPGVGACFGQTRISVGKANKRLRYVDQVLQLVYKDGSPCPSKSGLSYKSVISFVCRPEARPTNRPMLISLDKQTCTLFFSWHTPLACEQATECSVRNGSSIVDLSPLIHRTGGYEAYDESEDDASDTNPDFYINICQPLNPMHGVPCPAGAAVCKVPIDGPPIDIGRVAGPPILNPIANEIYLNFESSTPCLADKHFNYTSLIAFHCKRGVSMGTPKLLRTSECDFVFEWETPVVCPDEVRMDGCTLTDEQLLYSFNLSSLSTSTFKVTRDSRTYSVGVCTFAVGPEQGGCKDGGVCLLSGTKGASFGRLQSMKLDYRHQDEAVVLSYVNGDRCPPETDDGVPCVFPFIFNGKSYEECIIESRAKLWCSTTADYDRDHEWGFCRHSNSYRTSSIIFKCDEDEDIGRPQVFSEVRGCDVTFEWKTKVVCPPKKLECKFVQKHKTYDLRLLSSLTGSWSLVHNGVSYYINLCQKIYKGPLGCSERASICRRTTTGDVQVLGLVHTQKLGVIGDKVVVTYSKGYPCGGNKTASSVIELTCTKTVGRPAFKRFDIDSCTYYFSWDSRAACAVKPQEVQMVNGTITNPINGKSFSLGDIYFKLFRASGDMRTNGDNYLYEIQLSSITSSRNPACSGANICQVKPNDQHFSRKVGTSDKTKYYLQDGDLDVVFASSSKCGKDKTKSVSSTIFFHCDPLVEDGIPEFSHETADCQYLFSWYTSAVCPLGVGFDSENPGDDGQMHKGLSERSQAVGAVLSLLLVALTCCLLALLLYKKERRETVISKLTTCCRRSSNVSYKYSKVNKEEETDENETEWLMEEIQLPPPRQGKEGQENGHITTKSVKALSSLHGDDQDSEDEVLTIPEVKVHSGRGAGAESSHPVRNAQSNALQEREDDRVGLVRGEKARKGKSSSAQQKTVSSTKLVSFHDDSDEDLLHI
Substance,pKd (CI-MPR),GAA activity in cell lysates (cellular uptake) [1],enlarged LAMP1-positive lysosomes [2],levels of endosomal (Rab5) and lysosomal (LAMP1) markers ([3]; Western blot),"processed, mature lysosomal form of rhGAA (76 kDa) in cells ([3]; Western blot with anti-human GAA antibodies)"
ATB200: novel rhGAA carrying a higher M6P content that binds the CI-MPR with high affinity (previous studies),8.40 to 8.70,–,–,–,–
"Lumizyme: recombinant human acid α-glucosidase (alglucosidase alfa, Genzyme), therapeutic lysosomal enzyme for Pompe disease",–,only a slight increase (statistically insignificant),Enlarged lysosomes were seen; also recorded: can be detected; also recorded: contain enlarged LAMP1-positive lysosomes,remained the same as in the untreated GAA-deficient cells,barely detectable
